We go through six compounds from patent US20260226048A1, “MULTI-CYCLIC IRAK AND FLT3 INHIBITING COMPOUNDS AND USES THEREOF” (CHILDREN'S HOSPITAL MEDICAL CENTER, priority 2023, published 2026).

For test [1], the system named is THP1 cells (FLT3 WT). Description: Combination drug screening with venetoclax in THP1 cells (Cell Titre Glo, 10 × 10). Format: cell-based. Conditions: for Excess HSA (sum excess HSA score, combination with venetoclax): 10 × 10 dataset, Cell Titre Glo at 48 hours, optimal of 4 dose combinations, negative = synergy; for Concentration needed to decrease the 312.5 nM Venetoclax response to <20%: Cell Titer Glo at 48 hours. The protocol: (§1) These assays were performed using the Cell Titre Glo assay, measured at 48 hours.
(§2) A smaller concentration indicates higher potency to synergize with Venetoclax.
A general note: Cellular ATP, detected with luciferase, serves as a proxy for viable cell number.

For test [2], the system named is MOLM14-D835Y cells (FLT3-ITD (D835Y) mutant). Put plainly: Combination drug screening with venetoclax in MOLM14 (D835Y) cells (Cell Titre Glo, 10 × 10). Format: cell-based. More on the design: Excess HSA (sum excess HSA score, combination with venetoclax): scale not given here. Conditions: for Excess HSA (sum excess HSA score, combination with venetoclax): 10 × 10 dataset, Cell Titre Glo at 48 hours, optimal of 4 dose combinations, negative = synergy; for Concentration of a compound of the disclosure, or gilteritinib, needed to decrease the 62.5 nM Ven response to <10% in MOLM14(D835Y) cells: combination with 62.5 nM Venetoclax, Cell Titer Glo, 48 hours, response <10%. The protocol:
as §1, §2

The target of test [3] is T1, FLT3 (Homo sapiens, UniProt P36888).
T1 sequence (P36888 27-993): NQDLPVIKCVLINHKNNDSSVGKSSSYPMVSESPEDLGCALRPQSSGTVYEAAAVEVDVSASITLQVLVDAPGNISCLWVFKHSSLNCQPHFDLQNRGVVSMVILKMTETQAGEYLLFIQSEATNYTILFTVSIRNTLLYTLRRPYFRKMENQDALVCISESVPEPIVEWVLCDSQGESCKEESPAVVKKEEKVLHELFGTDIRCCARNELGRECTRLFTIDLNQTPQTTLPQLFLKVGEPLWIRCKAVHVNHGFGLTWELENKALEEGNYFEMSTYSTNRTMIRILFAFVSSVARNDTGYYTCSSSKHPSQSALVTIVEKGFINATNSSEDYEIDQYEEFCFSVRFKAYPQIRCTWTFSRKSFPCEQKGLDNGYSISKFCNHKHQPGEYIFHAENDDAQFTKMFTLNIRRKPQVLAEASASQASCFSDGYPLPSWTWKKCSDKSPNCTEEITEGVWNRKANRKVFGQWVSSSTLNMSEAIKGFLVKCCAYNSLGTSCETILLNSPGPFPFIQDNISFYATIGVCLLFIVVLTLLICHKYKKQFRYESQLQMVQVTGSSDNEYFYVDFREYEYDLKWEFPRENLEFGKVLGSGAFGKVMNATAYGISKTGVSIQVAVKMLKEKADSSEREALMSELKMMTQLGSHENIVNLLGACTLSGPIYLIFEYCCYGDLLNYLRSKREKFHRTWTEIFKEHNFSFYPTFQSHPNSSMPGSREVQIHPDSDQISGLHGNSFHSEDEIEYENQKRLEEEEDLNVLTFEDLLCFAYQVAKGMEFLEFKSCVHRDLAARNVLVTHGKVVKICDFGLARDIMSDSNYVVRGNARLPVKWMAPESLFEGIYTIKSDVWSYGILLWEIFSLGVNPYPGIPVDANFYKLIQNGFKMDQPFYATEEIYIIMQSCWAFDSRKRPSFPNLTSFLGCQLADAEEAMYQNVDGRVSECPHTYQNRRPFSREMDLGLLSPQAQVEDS
Put plainly: RBC HotSpot Kinase Assay, FLT3. Format: biochemical. More on the design: purchased Reaction Biology (RBC HotSpot). Conditions: isolated kinase enzyme, 33P-ATP, P81 filter-binding. In a few lines: (§3)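 Reactions ran in 20 mM Hepes (pH 7.5) containing 10 mM MgCl2, 1 mM EGTA, 0.1 mM Na3VO4, 2 mM DTT, 0.02 mg/ml BSA, 0.01% Brij35 and 1% DMSO, plus required cofactors. Functional activity readout on the expressible enzyme form, sometimes C-terminally truncated or lacking receptor regulatory regions.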

Test [4] deals with T2, IRAK4 (Homo sapiens, UniProt Q9NWZ3).
T2 sequence (Q9NWZ3 1-460): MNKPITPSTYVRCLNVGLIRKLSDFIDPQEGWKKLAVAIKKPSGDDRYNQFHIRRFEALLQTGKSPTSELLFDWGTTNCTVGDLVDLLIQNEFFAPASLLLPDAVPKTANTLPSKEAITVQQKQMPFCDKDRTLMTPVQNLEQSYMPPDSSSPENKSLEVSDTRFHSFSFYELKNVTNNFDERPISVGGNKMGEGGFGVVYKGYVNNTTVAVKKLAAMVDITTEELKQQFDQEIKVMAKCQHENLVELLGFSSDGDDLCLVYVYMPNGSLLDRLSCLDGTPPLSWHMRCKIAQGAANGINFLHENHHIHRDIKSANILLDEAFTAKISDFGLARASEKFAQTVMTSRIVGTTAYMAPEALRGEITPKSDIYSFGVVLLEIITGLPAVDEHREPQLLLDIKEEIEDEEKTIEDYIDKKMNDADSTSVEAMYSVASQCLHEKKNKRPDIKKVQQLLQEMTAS
Description: RBC HotSpot Kinase Assay, IRAK4. Format: biochemical. More on the design: purchased Reaction Biology (RBC HotSpot). Conditions: isolated kinase enzyme, 33P-ATP, P81 filter-binding. In a few lines: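 Radiometric filter-binding activity assay with isolated recombinant kinase (construct may be truncated or catalytic domain only) in 20 mM Hepes pH 7.5, 10 mM MgCl2, 1 mM EGTA, 2 mM DTT, 1% DMSO. Compound preincubated 20 min with kinase/substrate; reaction started with 33P-ATP, run 2 h at room temperature.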

The target in test [5] is T3, IRAK1 (Homo sapiens, UniProt P51617).
T3 construct: purchased Reaction Biology (RBC HotSpot)
T3 sequence (P51617 whole entry): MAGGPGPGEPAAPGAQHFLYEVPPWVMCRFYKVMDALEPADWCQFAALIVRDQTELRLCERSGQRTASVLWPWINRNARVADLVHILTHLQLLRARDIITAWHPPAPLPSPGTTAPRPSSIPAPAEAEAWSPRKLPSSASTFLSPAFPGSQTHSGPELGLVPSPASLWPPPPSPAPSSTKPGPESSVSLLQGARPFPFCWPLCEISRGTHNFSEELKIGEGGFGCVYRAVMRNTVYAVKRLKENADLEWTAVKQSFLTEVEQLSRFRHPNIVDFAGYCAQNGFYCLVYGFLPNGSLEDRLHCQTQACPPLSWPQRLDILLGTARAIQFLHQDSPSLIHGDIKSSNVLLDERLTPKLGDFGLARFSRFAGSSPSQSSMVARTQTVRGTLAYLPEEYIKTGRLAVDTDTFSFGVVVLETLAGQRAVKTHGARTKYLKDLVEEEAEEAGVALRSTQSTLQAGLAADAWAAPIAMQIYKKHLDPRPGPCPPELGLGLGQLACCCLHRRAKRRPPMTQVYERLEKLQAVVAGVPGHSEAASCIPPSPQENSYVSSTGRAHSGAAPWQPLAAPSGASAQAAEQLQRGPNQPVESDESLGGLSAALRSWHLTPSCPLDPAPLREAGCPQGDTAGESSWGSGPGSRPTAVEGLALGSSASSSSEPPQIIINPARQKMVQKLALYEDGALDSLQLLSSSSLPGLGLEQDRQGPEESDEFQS
Description: RBC HotSpot Kinase Assay, IRAK1. Format: biochemical. Conditions: isolated kinase enzyme, 33P-ATP, P81 filter-binding. In a few lines:
as §3

In test [6] the test system is MOLM14 D835Y cells. Description: MOLM14 D835Y cell viability assay (Cell Titer Glo). Format: cell-based. Conditions: cell viability, Cell Titer Glo, 48 hours, read-out: MOLM14 D835Y IC50. In a few lines:
(§4)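 Luminescent ATP read-out (CellTiter-Glo, 15 min room temperature) taken 48 h after compound addition. Cells were MOLM14 carrying FLT3 D835Y or F691L mutations, plated at 1000 cells per well.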

For test [7], the system named is MOLM14 F691L cells. Description: MOLM14 F691L cell viability assay (Cell Titer Glo). Conditions: Homo sapiens, MOLM-14; cell viability, Cell Titer Glo, 48 hours; read-out: MOLM14 F691L IC50. Format: cell-based. In a few lines:
as §4

Test [8] has as its system NF-κB-inducible SEAP reporter in THP-1-Blue NF-κB cells. Put plainly: NF-kB SEAP reporter assay in THP-1-Blue NF-κB cells. Format: cell-based. Conditions: 24 hours. The protocol:
THP-1-Blue NF-κB cells (InvivoGen) carrying a stable integrated NF-κB-inducible secreted embryonic alkaline phosphatase (SEAP) reporter construct were plated at a concentration of 1×10^5 cells per well. The cells were stimulated with Pam3CSK4 (1 ng/mL) or hIL1B (1 ng/mL). After 10-20 minutes, the cells were then treated with vehicle (DMSO) or serial dilutions of the test compounds (10 doses tested for each test compound, with a 1:10 dilution series starting at 1 μM or 3 μM) with a final volume of 200 μL for 24 hours at 37° C. After 24 hours, the cells were centrifuged and 20 μL supernatant was incubated with 180 μL QUANTI-Blue reagent at 37° C. for 30-60 minutes. The levels of NF-κB-induced was measured in a microplate reader at 620 nm.
Background: In a reporter assay the amount or activity of a reporter protein is the signal.

Like-named read-outs stand apart in the source and are kept apart here.

For the compound `CC(O)(c1ccc2ncc(-c3nc(N[C@H]4CNCC[C@@H]4F)ncc3F)n2c1)C(F)(F)F` (single isomer, unassigned) [Compound 34a], the “Excess HSA (sum excess HSA score, combination with venetoclax)” value (“Excess HSA” below) in test [1] is recorded as −683.5; in test [2], −1437.9420. Also, the “Concentration needed to decrease the 312.5 nM Venetoclax response to <20%” value in test [1] turned out to be 1.25 µM. The “Concentration of a compound of the disclosure, or gilteritinib, needed to decrease the 62.5 nM Ven response to <10% in MOLM14(D835Y) cells” value in test [2] was determined as 100 nM. In addition, the IC50 – broadly, the concentration that inhibits the measured activity by half – in test [3] came to 0.6 nM; in test [4] it was 2 nM; in test [5], 4 nM; in test [6] (Homo sapiens, MOLM-14, 48 h), 51 nM.

Turning to `CC(O)(c1ccc2ncc(-c3nc(N[C@H]4CNCC[C@@H]4F)ncc3F)n2c1)C(F)(F)F` (single isomer, unassigned) [Compound 35a], the “Excess HSA” value in test [1] is on record as −937.7; in test [2], −1543. In addition, in test [1], the “Concentration needed to decrease the 312.5 nM Venetoclax response to <20%” value came to 1.25 µM. Moreover, the “Concentration of a compound of the disclosure, or gilteritinib, needed to decrease the 62.5 nM Ven response to <10% in MOLM14(D835Y) cells” value in test [2] turned out to be 25 nM. The IC50 in test [3] is < 0.5 nM; in test [4], 0.7 nM; in test [5], 0.9 nM; in test [6], 26 nM.

With `COc1cc2ncc(-c3nc(N[C@H]4CNCC[C@@H]4F)ncc3F)n2nc1C1CCC1` [Compound 54a, 4-(6-cyclobutyl-7-methoxyimidazo[1,2-b]pyridazin-3-yl)-5-fluoro-N-((3S,4S)-4-fluoropiperidin-3-yl)pyrimidin-2-amine], the entries for the “Excess HSA” value in test [1] and in test [2] were −807.2 and −1490, respectively. The “Concentration needed to decrease the 312.5 nM Venetoclax response to <20%” value in test [1] worked out at 5 µM. The IC50 in test [7] is 7 nM; in test [3], < 0.5 nM; in test [4] it was < 0.5 nM; in test [5], < 0.5 nM; in test [6] (Homo sapiens, MOLM-14, 48 h), 1 nM. Also, the “Concentration of a compound of the disclosure, or gilteritinib, needed to decrease the 62.5 nM Ven response to <10% in MOLM14(D835Y) cells” value in test [2] stood at 1.6 nM.

Consider `COc1cc2ncc(-c3nc(N[C@H]4CNCC[C@@H]4F)ncc3F)n2nc1C1CC(C)(C)C1` [Compound 57a, 4-(6-(3,3-dimethylcyclobutyl)-7-methoxyimidazo[1,2-b]pyridazin-3-yl)-5-fluoro-N-((3S,4S)-4-fluoropiperidin-3-yl)pyrimidin-2-amine], for which the “Excess HSA” value in test [1] is −1308.2250; in test [2], −1762. In addition, the IC50 was found to be 90 nM in test [7]; 1 nM in test [4]; 2 nM in test [5]; 157 nM in test [8] (THP-1-Blue NF-κB cells stimulated with Pam3CSK4 (1 ng/mL), read-out: NF-κB Pam3SCK4 IC50); 167 nM in test [8] (THP-1-Blue NF-κB cells stimulated with hIL1B (1 ng/mL), read-out: NF-κB IL1B IC50); 11 nM in test [6] (Homo sapiens, MOLM-14, 48 h).

Consider `COc1cc2ncc(-c3ccnc(N[C@H]4CNCC[C@@H]4F)n3)n2nc1C1CC2(CCC2)C1` [Compound 74a, N-((3S,4S)-4-fluoropiperidin-3-yl)-4-(7-methoxy-6-(spiro[3.3]heptan-2-yl)imidazo[1,2-b]pyridazin-3-yl)pyrimidin-2-amine], for which the figures for the “Excess HSA” value in test [1] and in test [2] were −456.1 and −1335, respectively. Also, the “Concentration needed to decrease the 312.5 nM Venetoclax response to <20%” value in test [1] came out at 5 µM. For the same compound, the IC50 was 1000 nM in test [7]; < 0.5 nM in test [3]; 26 nM in test [4]; 91 nM in test [5]; 80 nM in test [6] (Homo sapiens, MOLM-14, 48 h). Besides, the “Concentration of a compound of the disclosure, or gilteritinib, needed to decrease the 62.5 nM Ven response to <10% in MOLM14(D835Y) cells” value in test [2] was found to be 312 nM.

As to `COc1cc2ncc(-c3ccnc(N[C@H]4CNCC[C@@H]4F)n3)n2nc1C1CC(C)(C)C1` [Compound 82a, 4-(6-(3,3-dimethylcyclobutyl)-7-methoxyimidazo[1,2-b]pyridazin-3-yl)-N-((3S,4S)-4-fluoropiperidin-3-yl)pyrimidin-2-amine], the figures for the “Excess HSA” value in test [1] and in test [2] were −1292.2960 and −1679, respectively. In addition, the “Concentration needed to decrease the 312.5 nM Venetoclax response to <20%” value in test [1] worked out at 5 µM. In addition, the IC50 was 1130 nM in test [7]; < 0.5 nM in test [3]; 45 nM in test [4]; 174 nM in test [5]; 127 nM in test [6] (Homo sapiens, MOLM-14, 48 h). Also, the “Concentration of a compound of the disclosure, or gilteritinib, needed to decrease the 62.5 nM Ven response to <10% in MOLM14(D835Y) cells” value in test [2] stood at 39 nM.
